Measured values taken from publication PMC8158775, “Structure–Activity Relationship Assessment of Sophorolipid Ester Derivatives against Model Bacteria Strains” (Molecules, 2021).
Converted amounts (≈) assume the structure as drawn. “Also recorded” adds a separate entry of the source. Read-outs that look alike come from different tables or passages of the source.

Tests used:
[1] = test system: Bacillus cereus (ATCC 4342); assay: Minimum inhibitory concentration (microdilution); assay type: cell-based; settings: read-out: MIC B. cereus
Description: (§1) Bacteria strains Staphylococcus aureus (ATCC 33807), Bacillus cereus (ATCC 4342), Bacillus subtilis (ATCC 21332), Listeria innocua (ATCC 33090), and Escherichia coli (ATCC 53323) were provided by Ravi Kane’s lab at Rensselaer Polytechnic Institute. Mueller–Hinton broth (MHB) was used for the Staphylococcus aureus culture, while tryptic soy broth (TSB) was used for the other strains. All strains were grown to the stationary phase for 24 h at 37 °C with agitation at 220 rpm. After overnight incubation, cultures were diluted to 5 × 10^6 CFU/mL prior to use.
(§2) The minimum inhibitory concentration (MIC) was determined using the microdilution technique. Modified sophorolipid (SL) derivatives were dissolved in DMSO to make 2 M stock solutions. A dilution series was made by diluting the stock solution to a range of concentrations from 200 µM to 4 µM and a final volume of 100 μL in 10% DMSO/phosphate-buffered saline (PBS) in each well of a 96-well plate. Bacterial inocula (100 μL, 5 × 10^6 CFU/mL) were added to each well, and the final DMSO concentration was 5%. Wells containing the same volumes of DMSO/PBS buffer and culture medium, with and without bacteria, were used as positive and negative controls, respectively. Streptomycin was used for comparison. The plate was then incubated with shaking for 16–30 h at 37 °C to ensure that cultures had reached stationary phase growth and the absorbance readings were recorded at a wavelength of 600 nm using an absorbance microplate reader. Absorbance data from 16–30 h were used to calculate the percent inhibition for each test condition. MIC was recorded as the lowest concentration of drug that inhibited more than 90% of bacterial growth. All assays were carried out in triplicate.

[2] = test system: Bacillus subtilis (ATCC 21332); assay: Minimum inhibitory concentration (microdilution); assay type: cell-based; settings: read-out: MIC B. subtilis
Description: as §1, §2

[3] = test system: Escherichia coli (ATCC 53323); assay: Minimum inhibitory concentration (microdilution); assay type: cell-based; settings: read-out: MIC E. coli
Description: as §1, §2

[4] = test system: Listeria innocua (ATCC 33090); assay: Minimum inhibitory concentration (microdilution); assay type: cell-based; settings: read-out: MIC L. innocua
Description: as §1, §2

[5] = test system: Staphylococcus aureus (ATCC 33807); assay: Minimum inhibitory concentration (microdilution); assay type: cell-based; settings: read-out: MIC S. aureus
Description: as §1, §2

[6] = test system: M1 activated macrophages (AMOs) from Raw 254.7 murine macrophages; assay: In vitro cytotoxicity study; assay type: cell-based; settings: for cytotoxicity ranking: comparison within SL series
Excerpt: A potential antimicrobial candidate must selectively kill pathogen cells without harming the host mammalian cells. To test the ability of SLs to effectively discriminate between bacteria and mammalian cells, a cytotoxicity assay was previously reported by our team. […] The therapeutic index (TI) is a parameter commonly used to determine potential drug selectivity. […] Generally, membrane-active agents are not considered for systemic administration directly, because of relatively low selectivity. Thus, designing suitable formulations and selecting suitable dose ranges are important in drug development.

B. cereus cell membrane = assay: Dye leakage / membrane depolarization assay with diS-C3(5); assay type: cell-based, Bacillus cereus; settings: 40 μg/mL (58–60 μM), t = 60 min, diS-C3(5) probe; listed as LSL
Description: To probe the role of LSL and the SL-esters as membrane-active agents, dye leakage experiments were carried out. Polymyxin B, a well-known membrane-active agent, was used as a positive control. Polymyxin B is a cyclic peptide with long, hydrophobic tails that can insert into cell membranes causing cell lysis. First, time-course membrane-depolarizing studies were conducted (Figure 3A). […] Upon addition of B. cereus cells at 2 min, a rapid decay in fluorescence intensity was observed due to self-quenching caused by migration of the probe into membranes. Subsequent addition of the SL-esters at 4 min led to a sharp increase in the fluorescence signal, thus indicating enhanced permeability of the cell membrane driven by the presence of the SL derivative.
The disruption of bacterial membranes after treatment with LSL and SL-ester derivatives was tested using a fluorescence probe, diS-C3(5), which can be quenched by the electrically polarized membrane. B. Cereus grown to mid-log phase was adjusted to 2.5 × 10^6 CFU/mL in fresh MHB. […] Fluorescence data were recorded at 670 nm with excitation at 622 nm on Molecular Devices SPECTRAmax Plus 384 UV-VIS High Throughput Microplate Spectrophotometer and normalized against the negative control.

[7] = incubation time 16 h, lowest concentration inhibiting more than 90% of bacterial growth
[8] = incubation time 30 h, lowest concentration inhibiting more than 90% of bacterial growth
[9] = Bacillus cereus, ATCC4342, incubation time 16 h, lowest concentration inhibiting more than 90% of bacterial growth
[10] = Bacillus subtilis, ATCC21332, incubation time 16 h, lowest concentration inhibiting more than 90% of bacterial growth
[11] = Escherichia coli, ATCC53323, incubation time 16 h, lowest concentration inhibiting more than 90% of bacterial growth
[12] = Listeria innocua, ATCC33090, incubation time 30 h, lowest concentration inhibiting more than 90% of bacterial growth
[13] = Staphylococcus aureus, ATCC33807, incubation time 16 h, lowest concentration inhibiting more than 90% of bacterial growth
[14] = 16 h incubation, procedure of ref 17

| SMILES | MIC [1, 9] | MIC [2, 10] | MIC [3, 11] | MIC [4, 12] | MIC [5, 13] | also measured |
| --- | --- | --- | --- | --- | --- | --- |
| COC(=O)CCCCCCC/C=C\CCCCCCC(C)OC1OC(CO)C(O)C(O)C1OC1OC(CO)C(O)C(O)C1O (stereo not shown) [SL-methyl ester] |  |  |  |  |  | MIC ([1]; Bacillus cereus, ATCC4342, 16 h): 50 µM (≈ 31.8 µg/mL); MIC [1, 7]: 50 µM (≈ 31.8 µg/mL); MIC ([2]; Bacillus subtilis, ATCC21332, 16 h): 50 µM (≈ 31.8 µg/mL); MIC [2, 7]: 50 µM (≈ 31.8 µg/mL); MIC ([3]; Escherichia coli, ATCC53323, 16 h): > 200 µM; MIC ([4]; Listeria innocua, ATCC33090, 30 h): 100 µM (≈ 63.7 µg/mL); MIC [4, 8]: 100 µM (≈ 63.7 µg/mL); MIC ([5]; Staphylococcus aureus, ATCC33807, 16 h): 200 µM (≈ 127 µg/mL); MIC [5, 7]: 200 µM (≈ 127 µg/mL); cell reduction ([6]; 400 µM, 16 h incubation, procedure of ref 17): no significant cell reduction; cytotoxicity ranking [6]: lowest toxicity |
| CC(=O)OCC1OC2OC(C)CCCCCC/C=C\CCCCCCCC(=O)OC3C(COC(C)=O)OC(OC2C(O)C1O)C(O)C3O (stereo not shown) [Lactonic SL, reference compound] | 25 µM (≈ 17.2 µg/mL) | 12 µM (≈ 8.27 µg/mL) | > 200 µM | 50 µM (≈ 34.4 µg/mL) | 25 µM (≈ 17.2 µg/mL) | MIC [3, 7]: > 200 µM; ability to enhance cell membrane permeability (endpoint fluorescence) (B. cereus cell membrane): non-significant ability to enhance cell membrane permeability; also recorded: failed to enhance membrane permeability; reduction in cell viability ([6]; at 50 µM, procedure of ref 17): roughly 50%; cytotoxicity ranking [6]: highest cytotoxicity |
| CCCCCOC(=O)CCCCCCC/C=C\CCCCCCC(C)OC1OC(CO)C(O)C(O)C1OC1OC(CO)C(O)C(O)C1O (stereo not shown) [SL-pentyl ester] | 12 µM (≈ 8.31 µg/mL) | > 200 µM | > 200 µM | 12 µM (≈ 8.31 µg/mL) | > 200 µM |  |
| CCOC(=O)CCCCCCC/C=C\CCCCCCC(C)OC1OC(CO)C(O)C(O)C1OC1OC(CO)C(O)C(O)C1O (stereo not shown) [SL-ethyl ester] | 50 µM (≈ 32.5 µg/mL) | 50 µM (≈ 32.5 µg/mL) | > 200 µM | 50 µM (≈ 32.5 µg/mL) | 200 µM (≈ 130 µg/mL) | concentration up to which low to no cytotoxicity [6, 14]: 100 to 200 µM |
| CCCCCCOC(=O)CCCCCCC/C=C\CCCCCCC(C)OC1OC(CO)C(O)C(O)C1OC1OC(CO)C(O)C(O)C1O (stereo not shown) [SL-hexyl ester] | > 200 µM | > 200 µM | > 200 µM | > 200 µM | > 200 µM | MIC [1, 7]: > 200 µM; MIC [2, 7]: > 200 µM; MIC [4, 8]: > 200 µM; MIC [5, 7]: > 200 µM |
| CCOC(=O)CCCCCCC/C=C\CCCCCCC(C)OC1OC(COC(C)=O)C(O)C(O)C1OC1OC(CO)C(O)C(O)C1O (stereo not shown) [ESL-(6′Ac, 6″OH)] | 25 µM (≈ 17.3 µg/mL) | 25 µM (≈ 17.3 µg/mL) | > 200 µM | 25 µM (≈ 17.3 µg/mL) |  |  |
| CCOC(=O)CCCCCCC/C=C\CCCCCCC(C)OC1OC(COC(C)=O)C(O)C(O)C1OC1OC(COC(C)=O)C(O)C(O)C1O (stereo not shown) [ESL-(6′Ac, 6″Ac)] | 12 µM (≈ 8.82 µg/mL) | > 200 µM | > 200 µM | > 200 µM |  |  |
| [H]/N=C(/N)N[C@H]1[C@H](O)[C@@H](O)[C@H](O[C@@H]2O[C@@H](C)[C@](O)(C=O)[C@H]2O[C@@H]2O[C@@H](CO)[C@H](O)[C@@H](O)[C@@H]2NC)[C@@H](N/C(N)=N\[H])[C@@H]1O [Streptomycin, reference compound] | 12 µM (≈ 6.98 µg/mL) | 12 µM (≈ 6.98 µg/mL) | 12 µM (≈ 6.98 µg/mL) | 24 µM (≈ 14 µg/mL) | 3 µM (≈ 1.74 µg/mL) |  |
| CCOC(=O)CCCCCCC/C=C\CCCCCCC(C)OC1OC(CO)C(O)C(O)C1OC1OC(COC(C)=O)C(O)C(O)C1O (stereo not shown) [ESL-(6′OH, 6″Ac)] | 25 µM (≈ 17.3 µg/mL) | 25 µM (≈ 17.3 µg/mL) | > 200 µM | 25 µM (≈ 17.3 µg/mL) |  |  |
| CCCCOC(=O)CCCCCCC/C=C\CCCCCCC(C)OC1OC(CO)C(O)C(O)C1OC1OC(CO)C(O)C(O)C1O (stereo not shown) [SL-butyl ester] | 12 µM (≈ 8.15 µg/mL) | 12 µM (≈ 8.15 µg/mL) | > 200 µM | 12 µM (≈ 8.15 µg/mL) | 100 µM (≈ 67.9 µg/mL) | MIC [1, 7]: 12 µM (≈ 8.15 µg/mL); MIC [2, 7]: 12 µM (≈ 8.15 µg/mL); MIC [4, 8]: 12 µM (≈ 8.15 µg/mL); MIC [5, 7]: 100 µM (≈ 67.9 µg/mL); concentration up to which low to no cytotoxicity [6, 14]: 100 to 200 µM |
| CCCOC(=O)CCCCCCC/C=C\CCCCCCC(C)OC1OC(CO)C(O)C(O)C1OC1OC(CO)C(O)C(O)C1O (stereo not shown) [SL-propyl ester] | 25 µM (≈ 16.6 µg/mL) | 25 µM (≈ 16.6 µg/mL) | > 200 µM | 25 µM (≈ 16.6 µg/mL) | 100 µM (≈ 66.5 µg/mL) | concentration up to which low to no cytotoxicity [6, 14]: 100 to 200 µM |
